Reference: patent US8841301B2, “Selective NR2B antagonists” (Bristol-Myers Squibb Company, priority 2011, dated 2014)
pIC50: −log10 of the molar value. Counter-ions that a name gives are not always drawn.

target: hNR2B (Homo sapiens, UniProt Q05586+Q13224); test: Electrophysiology NMDA receptor experiments: two electrode voltage-clamp in Xenopus laevis oocytes expressing GluN1/GluN2 subunits; assay type: cell-based; conditions: oocytes voltage clamped at −40 mV; 50 μM glutamate, 30 μM glycine; read-out: Rating (hNR2B IC50)
Procedure: Electrophysiology NMDA Receptor Experiments.
Stage V and VI oocytes were surgically removed from the ovaries of large, well-fed and healthy Xenopus laevis anesthetized with 3-amino-benzoic acid ethyl ester (3 gm/l). Clusters of isolated oocytes were incubated with 292 U/ml Worthington (Freehold, N.J.) type IV collagenase or 1.3 mg/ml collagenase (Life Technologies, Gaithersburg, Md.; 17018-029) for 2 hr in Ca^2+-free solution comprised of (in mM) 115 NaCl, 2.5 KCl, and 10 HEPES, pH 7.5, with slow agitation to remove the follicular cell layer. Oocytes were then washed in the same solution supplemented with 1.8 mM CaCl2 and maintained in Barth's solution comprised of (in mM): 88 NaCl, 1 KCl, 2.4 NaHCO3, 10 HEPES, 0.82 MgSO4, 0.33 Ca(NO3)2, and 0.91 CaCl2 and supplemented with 100 μg/ml gentamycin, 10 μg/ml streptomycin, and 10 μg/ml penicillin. Oocytes were manually defolliculated and injected within 24 hrs of isolation with 3-5 ng of human GluN1 subunit cRNA and 7-10 ng of human GluN2 cRNA subunit in a 50 nl volume, and incubated in Barth's solution at 18° C. for 2-7 d. Glass injection pipettes had tip sizes ranging from 10-20 microns, and were backfilled with mineral oil. cRNA was synthesized from linearized template cDNA for rat glutamate receptor subunits according to manufacturer specifications (Ambion).
Two electrode voltage-clamp recordings were made 2-7 days post-injection. Oocytes were placed in a dual-track plexiglass recording chamber with a single perfusion line that splits in a Y-configuration to perfuse two oocytes. Dual recordings were made at room temperature (23° C.) using two Warner OC725B two-electrode voltage clamp amplifiers, arranged as recommended by the manufacturer. Glass microelectrodes (1-10 Megaohms) were filled with 300 mM KCl (voltage electrode) or 3 M KCl (current electrode). The bath clamps communicated across silver chloride wires placed into each side of the recording chamber, both of which were assumed to be at a reference potential of 0 mV. Oocytes were perfused with a solution comprised of (in mM) 90 NaCl, 1 KCl, 10 HEPES, […] and 0.5 BaCl2; pH 7.4, adjusted by addition of NaOH. Oocytes were recorded under voltage clamp at −40 mV. Final concentrations for glutamate and glycine were 50 μM and 30 μM, respectively. Concentration-response curves for experimental compounds were obtained by applying in successive fashion maximal glutamate/glycine, followed by glutamate/glycine plus variable concentrations of experimental compounds. Dose response curves consisting of four to eight concentrations were obtained in this manner. The baseline leak current at −40 mV was measured before and after recording, and the full recording linearly corrected for any change in leak current. The level of inhibition by applied experimental compounds was expressed as a percent of the initial glutamate response, and averaged together across oocytes from multiple experiments. Results were pooled, and the average percent responses at antagonist concentrations were fit by the equation, Percent Response=(100−minimum)/(1+([conc]/IC50)^nH)+minimum where minimum is the residual percent response in saturating concentration of the experimental compounds, IC50 is the concentration of antagonist that causes half of the achievable inhibition, and nH is a slope factor describing steepness of the inhibition curve. […]
For NMDA receptor subtype selectivity experiments human GluN1/GluN2A, GluN1/GluN2C, and GluN1/GluN2D cRNAs were expressed in Xenopus laevis as described above. Here, 10 μM concentrations of the antagonist was perfused with 50 μM glutamate and 30 μM glycine onto the oocyte for two min and the remaining current in the presence of the antagonist was compared to the maximal current obtained with 50 μM glutamate and 30 μM glycine alone (defined as 100%). When IC50 determinations were made against other NMDA receptor subtypes the protocol as described above was followed. […]

Sequence of hNR2B (Q13224 27-1484, other chains not shown): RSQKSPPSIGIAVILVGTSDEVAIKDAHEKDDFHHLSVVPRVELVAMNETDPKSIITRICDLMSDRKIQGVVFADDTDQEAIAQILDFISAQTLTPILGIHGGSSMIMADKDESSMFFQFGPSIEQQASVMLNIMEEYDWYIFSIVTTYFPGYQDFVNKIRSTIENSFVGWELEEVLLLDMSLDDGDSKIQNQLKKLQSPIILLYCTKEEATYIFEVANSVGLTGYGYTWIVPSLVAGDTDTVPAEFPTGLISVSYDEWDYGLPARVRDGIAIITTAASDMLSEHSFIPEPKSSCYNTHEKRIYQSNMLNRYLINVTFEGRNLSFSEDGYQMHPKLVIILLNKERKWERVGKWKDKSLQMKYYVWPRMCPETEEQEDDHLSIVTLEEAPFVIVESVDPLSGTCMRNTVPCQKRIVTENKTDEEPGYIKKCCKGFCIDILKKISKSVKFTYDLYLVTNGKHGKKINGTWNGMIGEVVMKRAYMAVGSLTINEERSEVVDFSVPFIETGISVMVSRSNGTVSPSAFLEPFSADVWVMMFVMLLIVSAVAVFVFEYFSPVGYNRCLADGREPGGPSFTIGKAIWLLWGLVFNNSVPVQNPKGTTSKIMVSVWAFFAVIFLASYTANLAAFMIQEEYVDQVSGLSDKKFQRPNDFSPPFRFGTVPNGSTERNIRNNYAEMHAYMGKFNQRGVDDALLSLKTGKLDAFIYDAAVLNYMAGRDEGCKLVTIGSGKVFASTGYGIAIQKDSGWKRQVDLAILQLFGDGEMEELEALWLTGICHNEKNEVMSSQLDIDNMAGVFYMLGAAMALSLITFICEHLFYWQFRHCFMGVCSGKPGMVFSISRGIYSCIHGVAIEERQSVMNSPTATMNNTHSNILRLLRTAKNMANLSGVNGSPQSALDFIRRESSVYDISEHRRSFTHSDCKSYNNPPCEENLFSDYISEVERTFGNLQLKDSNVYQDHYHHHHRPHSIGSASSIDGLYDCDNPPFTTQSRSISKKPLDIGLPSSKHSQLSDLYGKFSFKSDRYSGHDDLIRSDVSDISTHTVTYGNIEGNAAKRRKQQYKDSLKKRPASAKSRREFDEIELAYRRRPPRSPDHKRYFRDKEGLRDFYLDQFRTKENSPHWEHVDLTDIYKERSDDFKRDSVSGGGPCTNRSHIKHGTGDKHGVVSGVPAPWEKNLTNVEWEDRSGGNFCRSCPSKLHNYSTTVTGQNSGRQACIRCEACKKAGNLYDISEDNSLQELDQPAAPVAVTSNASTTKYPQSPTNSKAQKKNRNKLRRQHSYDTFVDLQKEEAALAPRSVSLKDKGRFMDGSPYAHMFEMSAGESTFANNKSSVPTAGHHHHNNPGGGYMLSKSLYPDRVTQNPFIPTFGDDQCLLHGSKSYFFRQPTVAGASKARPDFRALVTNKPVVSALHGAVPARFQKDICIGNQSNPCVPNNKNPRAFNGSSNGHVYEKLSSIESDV

| SMILES | pIC50 |
| --- | --- |
| FC(F)Oc1ccc(Nc2ncc(COc3ccc4[nH]ncc4c3)cn2)cc1 [Example 57] | > 6.70 |
| Oc1ccc(OCc2cnc(Nc3ccc(OC(F)F)cc3)nc2)nn1 [Example 59] | > 6.70 |
| FC(F)(F)Oc1ccc(Nc2ncc(COc3ccc4[nH]ncc4c3Cl)cn2)cc1 [Example 64] | > 6.70 |
| Nc1nc2ccc(OCc3cnc(Nc4ccc(OC(F)F)cc4)nc3)cc2s1 [Example 65] | > 6.70 |
| Oc1ncc(OCc2cnc(Nc3ccc(OC(F)F)cc3)nc2)cn1 [Example 70] | > 6.70 |
| Cc1cc(Nc2ncc(COc3ccc4[nH]ncc4c3)cn2)ccc1OC(F)F [Example 76] | > 6.70 |
| O=C1Nc2ccc(OCc3cnc(Nc4ccc(OC(F)F)c(Cl)c4)nc3)cc2CO1 [Example 77] | > 6.70 |
| FC(F)Oc1ccc(Nc2ncc(COc3cnc4[nH]ncc4c3)cn2)cc1 [Example 79] | > 6.70 |
| O=C1Nc2ccc(OCc3cnc(Nc4ccc(OC(F)F)c(F)c4)nc3)cc2CO1 [Example 84] | > 6.70 |
| O=C1Cc2cc(OCc3cnc(Nc4ccc(OC(F)F)c(F)c4)nc3)ccc2N1 [Example 85] | > 6.70 |
| FC(F)Oc1ccc(Nc2ncc(COc3cnc4[nH]ccc4c3)cn2)cc1Cl [Example 90] | > 6.70 |
| Fc1cc(Nc2ncc(COc3ccc(Nc4nccs4)cc3)cn2)ccc1OC(F)F [Example 91] | > 6.70 |
| FC(F)Oc1ccc(Nc2ncc(COc3ccc(Nc4nccs4)cc3)cn2)cc1Cl [Example 92] | > 6.70 |
| O=c1ccc2cc(OCc3ccnc(NCc4ccc(Cl)cc4)n3)ccc2[nH]1 [Example 94] | 5.00 to 6.00 |
| O=c1ccc2cc(OCc3cc(NCc4ccc(Cl)c(Cl)c4)ncn3)ccc2[nH]1 [Example 97] | 5.00 to 6.00 |
| O=c1ccc2cc(OCc3cncc(NCc4ccc(Cl)cc4)n3)ccc2[nH]1 [Example 100] | 6.00 to 6.70 |
| O=c1ccc2cc(CCc3cnc(Nc4ccc(OC(F)(F)F)cc4)nc3)ccc2[nH]1 [Example 108] | > 6.70 |
| O=c1ccc2cc(C3CC3c3cnc(Nc4ccc(OC(F)F)cc4)nc3)ccc2[nH]1 (stereo not shown) [Example 110] | > 6.70 |
| FC(F)Oc1ccc(Nc2ncc(CCc3ccc4cn[nH]c4c3)cn2)cc1 [Example 113] | < 5.00 |
| N#Cc1n[nH]c2ccc(CCc3cnc(Nc4ccc(OC(F)F)cc4)nc3)cc12 [Example 124] | < 5.00 |
| CCc1ccc(Nc2ncc(CCc3ccc4[nH]ncc4c3)cn2)cc1F [Example 125] | 5.00 to 6.00 |
| CCc1ccc(Nc2ncc(CCc3ccc4[nH]c(=O)ccc4c3)cn2)cc1F [Example 126] | > 6.70 |

The next lines start with the values.

| pIC50 | SMILES |
| --- | --- |
| > 6.70 | O=C1Nc2ccc(OCc3cnc(Nc4ccc(OC(F)F)cc4)nc3)cc2CO1 [Example 58] |
| > 6.70 | FC(F)Oc1ccc(Nc2ncc(COc3ccc4[nH]cnc4c3)cn2)cc1 [Example 60] |
| > 6.70 | O=C1Nc2ccc(OCc3cnc(Nc4ccc(OC(F)(F)F)cc4)nc3)cc2CO1 [Example 61] |
| > 6.70 | FC(F)Oc1ccc(Nc2ncc(COc3cn[nH]c3)cn2)cc1 [Example 63] |
| > 6.70 | FC(F)Oc1ccc(Nc2ncc(COc3ccc4[nH]ncc4c3Cl)cn2)cc1 [Example 66] |
| > 6.70 | Cc1cc(OCc2cnc(Nc3ccc(OC(F)(F)F)cc3)nc2)cc2cn[nH]c12 [Example 67] |
| > 6.70 | FC(F)(F)Oc1ccc(Nc2ncc(COc3ccc4[nH]nnc4c3)cn2)cc1 [Example 68] |
| > 6.70 | FC(F)Oc1ccc(Nc2ncc(COc3ccc4[nH]nnc4c3)cn2)cc1 [Example 69] |
| > 6.70 | O=c1[nH]c2ccc(OCc3cnc(Nc4ccc(OC(F)(F)F)cc4)nc3)cc2s1 [Example 71] |
| > 6.70 | Fc1cc(Nc2ncc(COc3ccc4[nH]ncc4c3Cl)cn2)ccc1OC(F)F [Example 72] |
| > 6.70 | Cc1cc(Nc2ncc(COc3ccc4[nH]ncc4c3Cl)cn2)ccc1OC(F)F [Example 73] |
| > 6.70 | FC(F)Oc1ccc(Nc2ncc(COc3ccc4[nH]ncc4c3)cn2)cc1Cl [Example 75] |
| > 6.70 | Cc1cc(Nc2ncc(COc3cc4ccc(=O)[nH]c4cc3F)cn2)ccc1OC(F)F [Example 78] |
| > 6.70 | O=c1[nH]c2ccc(OCc3cnc(Nc4ccc(OC(F)(F)F)cc4)nc3)cc2o1 [Example 80] |
| > 6.70 | Cc1cc(Nc2ncc(COc3ccc4c(c3)COC(=O)N4)cn2)ccc1OC(F)F [Example 82] |
| > 6.70 | Cc1ccc(Nc2ncc(COc3ccc4c(c3)COC(=O)N4)cn2)cc1F [Example 83] |
| > 6.70 | Cc1cc(Nc2ncc(COc3ccc4c(c3)CC(=O)N4)cn2)ccc1OC(F)F [Example 86] |
| > 6.70 | Cc1cc(Nc2ncc(COc3ccc(Nc4nccs4)cc3)cn2)ccc1OC(F)F [Example 87] |
| > 6.70 | O=c1ccc2cc(OCc3cnc(Nc4ccc(OC(F)F)c(Cl)c4)nc3)c(F)cc2[nH]1 [Example 88] |
| > 6.70 | O=c1ccc2cc(OCc3cc(Nc4ccc(Cl)cc4)ncn3)ccc2[nH]1 [Example 96] |
| 5.00 to 6.00 | O=c1ccc2cc(OCc3cncc(Nc4ccc(Cl)cc4)n3)ccc2[nH]1 [Example 99] |
| 5.00 to 6.00 | O=c1ccc2cc(OCc3cncc(NCc4ccc(Cl)c(Cl)c4)n3)ccc2[nH]1 [Example 101] |
| > 6.70 | O=c1ccc2cc(CCc3cnc(Nc4ccc(OC(F)F)cc4)nc3)ccc2[nH]1 [Example 109] |
| 5.00 to 6.00 | FC(F)Oc1ccc(Nc2ncc(CCc3cccc4[nH]ncc34)cn2)cc1 [Example 111] |
| 6.00 to 6.70 | FC(F)Oc1ccc(Nc2ncc(CCc3ccc4[nH]ncc4c3)cn2)cc1 [Example 112] |
| < 5.00 | FC(F)Oc1ccc(Nc2ncc(CCCNc3ncccn3)cn2)cc1 [Example 114] |
| < 5.00 | FC(F)Oc1ccc(Nc2ncc(CCCNc3ncnc4[nH]ncc34)cn2)cc1 [Example 115] |
| < 5.00 | FC(F)Oc1ccc(Nc2ncc(C3CC3c3cccc4[nH]ncc34)cn2)cc1 (stereo not shown) [Example 117] |
| > 6.70 | CC(Cc1cnc(Nc2ccc(OC(F)F)cc2)nc1)c1ccc2[nH]c(=O)ccc2c1 (stereo not shown) [Example 122] |

same assay, conditions: oocytes voltage clamped at −40 mV; 50 μM glutamate, 30 μM glycine; read-out: hNR2B IC50

| SMILES | pIC50 |
| --- | --- |
| O=c1ccc2cc(OCc3ccnc(Nc4ccc(Cl)cc4)n3)ccc2[nH]1 [Example 93, 6-((2-(4-chlorophenylamino)pyrimidin-4-yl)methoxy)quinolin-2(1H)-one] | 5.90 |
| O=c1ccc2cc(OCc3cnc(Nc4ccc(Cl)c(Cl)c4)cn3)ccc2[nH]1 [Example 98, 6-((5-(3,4-dichlorophenylamino)pyrazin-2-yl)methoxy)quinolin-2(1H)-one] | < 5.52 |
| FC(F)Oc1ccc(Nc2ncc(CCc3ccc4[nH]ncc4c3)cn2)cc1Cl [Example 104, 5-(2-(1H-indazol-5-yl)ethyl)-N-(3-chloro-4-(difluoromethoxy)phenyl)pyrimidin-2-amine] | 6.74 |
| Oc1ccc(CCc2cnc(Nc3ccc(OC(F)F)cc3)nc2)cc1 [Example 107, 4-(2-(2-((4-(difluoromethoxy)phenyl)amino)pyrimidin-5-yl)ethyl)phenol] | 7.46 |

The remaining lines, values ahead:

| pIC50 | SMILES |
| --- | --- |
| 7.44 | O=c1ccc2cc(OCc3cc(Nc4ccc(Cl)c(Cl)c4)ncn3)ccc2[nH]1 [Example 95, 6-((6-(3,4-dichlorophenylamino)pyrimidin-4-yl)methoxy)quinolin-2(1H)-one trifluoroacetate] |
| 5.34 | O=c1ccc2cc(Oc3ccc(NCc4ccc(OC(F)(F)F)cc4)nn3)ccc2[nH]1 [Example 102, 6-(6-(4-(trifluoromethoxy)benzylamino)pyridazin-3-yloxy)quinolin-2(1H)-one] |
| 8.60 | O=c1ccc2cc(CCc3cnc(Nc4ccc(OC(F)F)c(Cl)c4)nc3)ccc2[nH]1 [Example 105, 6-(2-(2-(3-chloro-4-(difluoromethoxy)phenylamino)pyrimidin-5-yl)ethyl)quinolin-2(1H)-one] |
